Patent US20100074870A1, “Probiotic infant products” (priority 2008, published 2010)

These compounds were tested on B. longum AH1206 (assay: Antibiotic sensitivity, minimum inhibitory concentration (MIC)). Settings: antibiotic against B. longum AH1206; unit not given.

minimum inhibitory concentration (MIC) | SMILES
0.32 | CCC[C@@H]1C[C@@H](C(=O)N[C@@H]([C@H]2O[C@H](SC)[C@H](O)[C@@H](O)[C@H]2O)[C@H](C)Cl)N(C)C1 [clindamycin]
0.38 | Cc1ncc([N+](=O)[O-])n1CCO [metronidazole]

SMILES | minimum inhibitory concentration (MIC)
CN[C@H](CC(C)C)C(=O)N[C@H]1C(=O)N[C@@H](CC(N)=O)C(=O)N[C@H]2C(=O)N[C@H]3C(=O)N[C@H](C(=O)N[C@H](C(=O)O)c4cc(O)cc(O)c4-c4cc3ccc4O)[C@H](O)c3ccc(c(Cl)c3)Oc3cc2cc(c3O[C@@H]2O[C@H](CO)[C@@H](O)[C@H](O)[C@H]2O[C@H]2C[C@](C)(N)[C@H](O)[C@H](C)O2)Oc2ccc(cc2Cl)[C@H]1O [vancomycin] | 0.75
